Data published in patent publication US9605026B2, “Hydrogen-bond surrogate peptides and peptidomimetics for p53 reactivation” (New York University, priority 2013, dated 2017).

Test system: p53-regulated genes (p21, miR-34a, miR-200c)
Assay: qPCR expression of p300, p53, p21, miR-34a, miR-200c in UMSCC47 cells
Type: cell-based, human
Details: UMSCC47, 10 μM, 24 hours, vs control
Source text: FIG. 5A is an schematic illustration showing that CH1 has two distinct target sites. HIF1-α/p300 structures were used as guides to design helix mimetics that target site A and site B on the CH1 domain of p300. […] CH1iA (SEQ ID NO: 7) and CH1iB (SEQ ID NO: 8) were designed to mimic two helices from the C-terminal domain of HIF-1α. The peptides were locked into the helical conformation by the hydrogen bond surrogate method. FIG. 5C is a graph of p53 activity. UMSCC47 (left) and UMSCC74A (right) cells were co-transfected with a p53 Firefly luciferase reporter plasmid and a control Renilla luciferase plasmid. After 24 hours, cells were treated with control (vehicle), CH1iA (10 μM), or CH1iB (10 μM) for 24 hours. Firefly luciferase activity was normalized to Renilla luciferase activity to control for transfection efficiency. Data is normalized to control and presented as mean±SEM. *P<0.05, n=3. […] UMSCC47 (top panel) and UMSCC74A (bottom panel) cells were treated with control (vehicle), CH1iA (10 μM), or CH1iB (10 μM) for 24 hours. mRNA expression was determined using qPCR with validated TaqMan assays. […]
FIG. 6A is a western blot showing total and acetylated p53 levels. […] UMSCC47 cells were treated with control (vehicle), CH1iB (10 μM), cis-platinum (10 μM), or CH1iB (10 μM) and cis-platinum (10 μM) for 24 hours. mRNA expression was determined using qPCR with validated TaqMan assays. […]

XELA*RALDQ-NH2 (ELXRALDQ; HBS: 4-pentenoic acid, N-allylalanine; C-terminal amide; CH1iB) [X 4-pentenoic acid, A* N-allylalanine]
p21, miR-34a, and miR-200c expression: modest but significant increase
